Values quoted from earlier work in patent publication US20240105341A1, “SYSTEMS AND METHODS FOR ESTIMATING TUMOR GROWTH” (AMGEN INC., priority 2022, published 2024).
Like-named read-outs stand apart in the source and are kept apart here.

Experiments:
[1] = tested on: metastatic, castration-resistant prostate cancer (mCRPC); conditions: FIRSTANA 2017, phase 3, chemo-naive
[2] = tested on: metastatic, castration-resistant prostate cancer (mCRPC); conditions: PREVAIL 2014, phase 3, chemo-naive

Structure (SMILES)	CR (number of complete responders) [1]	Median PFS [1]	PR + CR (number of responders) [1]	CR (number of complete responders) [2]	PR + CR (number of responders) [2]
CO[C@H]1C(=O)[C@]2(C)[C@@H](OC)C[C@H]3OC[C@@]3(OC(C)=O)[C@H]2[C@H](OC(=O)c2ccccc2)[C@]2(O)C[C@H](OC(=O)[C@H](O)[C@@H](NC(=O)OC(C)(C)C)c3ccccc3)C(C)=C1C2(C)C [Caba20]	1	4.4	61		
CC(=O)O[C@@]12CO[C@@H]1C[C@H](O)[C@@]1(C)C(=O)[C@H](O)C3=C(C)[C@@H](OC(=O)[C@H](O)[C@@H](NC(=O)OC(C)(C)C)c4ccccc4)C[C@@](O)([C@@H](OC(=O)c4ccccc4)[C@H]21)C3(C)C [Doce75]	1	5.3	54		
CNC(=O)c1ccc(N2C(=S)N(c3ccc(C#N)c(C(F)(F)F)c3)C(=O)C2(C)C)cc1F [Enza]				78	233
